# Assay results published in US11174248B2, “Indazolyl-spiro[2.3]hexane-carbonitrile derivatives as LRRK2 inhibitors, pharmaceutical compositions, and uses thereof” (Merck Sharp & Dohme Corp., priority 2017, dated 2021).
# Molecular target: GST-tagged truncated human mutant G2019S LRRK2 (Homo sapiens (Human), UniProt Q5S007, G2019S)
# Assay: LRRK2 Km ATP LanthaScreen Assay
# Format: biochemical
# Conditions: 134 μM ATP (Km ATP); fluorescein-labeled LRRKtide substrate; mean IC50 values
# Method: Unless otherwise noted, all LRRK2 IC50 data presented in tables refers to the LRRK2 Km ATP LanthaScreen™ Assay that is described in the Biological Assay section.
# Biological Assay: LRRK2 Km ATP LanthaScreen™ Assay
# The LRRK2 kinase activity reported herein as IC50 values was determined with LanthaScreen™ technology from Life Technologies Corporation (Carlsbad, Calif.) using GST-tagged truncated human mutant G2019S LRRK2 in the presence of the fluorescein-labeled peptide substrate LRRKtide, also from Life Technologies. The data presented for the Km ATP LanthaScreen™ Assay represents mean IC50 values based on several test results and may have reasonable deviations depending on the specific conditions and reagents used. Assays were performed in the presence of 134 μM ATP (Km ATP). Upon completion, the assay was stopped and phosphorylated substrate detected with a terbium (Tb)-labeled anti-pERM antibody (cat. no. PV4898). The compound dose response was prepared by diluting a 10 mM stock of compound to a maximum concentration of 9.99 μM in 100% dimethylsulfoxide followed by custom fold serial dilution in dimethylsulfoxide nine times. Twenty nanoliters of each dilution was spotted via a Labcyte Echo onto a 384-well black-sided plate (Corning 3575) followed by 15 μl of a 1.25 nM enzyme solution in 1× assay buffer (50 mM Tris pH 8.5, 10 mM MgCl2, 0.01% Brij-35, 1 mM EGTA, 2 mM dithiothreitol, 0.05 mM sodium orthovanadate) Following a 15-minute incubation at room temperature, the kinase reaction was started with the addition of 5 μl of 400 nM fluorescein-labeled LRRKtide peptide substrate and 134 μM ATP solution in 1× assay buffer. The reaction was allowed to progress at ambient temperature for 90 minutes. The reaction was then stopped by the addition of 20 μl of TR-FRET Dilution Buffer (Life Technologies, Carlsbad, Calif.) containing 2 nM Tb-labeled anti-phospho LRRKtide antibody and 10 mM EDTA (Life Technologies, Carlsbad, Calif.). After an incubation of 1 hour at room temperature, the plate was read on an EnVision multimode plate reader (Perkin Elmer, Waltham, Mass.) with an excitation wavelength of 337 nm (Laser) and a reading emission at both 520 and 495 nm. Compound IC50s were interpolated from nonlinear regression best fits of the log of the final compound concentration, plotted as a function of the 520/495-nm emission ratio using Activity base. Abase uses a 4 parameter (4P) logistic fit based on the Levenberg-Marquardt algorithm.
# Sequence of GST-tagged truncated human mutant G2019S LRRK2 (Q5S007 970-2527 G2019S): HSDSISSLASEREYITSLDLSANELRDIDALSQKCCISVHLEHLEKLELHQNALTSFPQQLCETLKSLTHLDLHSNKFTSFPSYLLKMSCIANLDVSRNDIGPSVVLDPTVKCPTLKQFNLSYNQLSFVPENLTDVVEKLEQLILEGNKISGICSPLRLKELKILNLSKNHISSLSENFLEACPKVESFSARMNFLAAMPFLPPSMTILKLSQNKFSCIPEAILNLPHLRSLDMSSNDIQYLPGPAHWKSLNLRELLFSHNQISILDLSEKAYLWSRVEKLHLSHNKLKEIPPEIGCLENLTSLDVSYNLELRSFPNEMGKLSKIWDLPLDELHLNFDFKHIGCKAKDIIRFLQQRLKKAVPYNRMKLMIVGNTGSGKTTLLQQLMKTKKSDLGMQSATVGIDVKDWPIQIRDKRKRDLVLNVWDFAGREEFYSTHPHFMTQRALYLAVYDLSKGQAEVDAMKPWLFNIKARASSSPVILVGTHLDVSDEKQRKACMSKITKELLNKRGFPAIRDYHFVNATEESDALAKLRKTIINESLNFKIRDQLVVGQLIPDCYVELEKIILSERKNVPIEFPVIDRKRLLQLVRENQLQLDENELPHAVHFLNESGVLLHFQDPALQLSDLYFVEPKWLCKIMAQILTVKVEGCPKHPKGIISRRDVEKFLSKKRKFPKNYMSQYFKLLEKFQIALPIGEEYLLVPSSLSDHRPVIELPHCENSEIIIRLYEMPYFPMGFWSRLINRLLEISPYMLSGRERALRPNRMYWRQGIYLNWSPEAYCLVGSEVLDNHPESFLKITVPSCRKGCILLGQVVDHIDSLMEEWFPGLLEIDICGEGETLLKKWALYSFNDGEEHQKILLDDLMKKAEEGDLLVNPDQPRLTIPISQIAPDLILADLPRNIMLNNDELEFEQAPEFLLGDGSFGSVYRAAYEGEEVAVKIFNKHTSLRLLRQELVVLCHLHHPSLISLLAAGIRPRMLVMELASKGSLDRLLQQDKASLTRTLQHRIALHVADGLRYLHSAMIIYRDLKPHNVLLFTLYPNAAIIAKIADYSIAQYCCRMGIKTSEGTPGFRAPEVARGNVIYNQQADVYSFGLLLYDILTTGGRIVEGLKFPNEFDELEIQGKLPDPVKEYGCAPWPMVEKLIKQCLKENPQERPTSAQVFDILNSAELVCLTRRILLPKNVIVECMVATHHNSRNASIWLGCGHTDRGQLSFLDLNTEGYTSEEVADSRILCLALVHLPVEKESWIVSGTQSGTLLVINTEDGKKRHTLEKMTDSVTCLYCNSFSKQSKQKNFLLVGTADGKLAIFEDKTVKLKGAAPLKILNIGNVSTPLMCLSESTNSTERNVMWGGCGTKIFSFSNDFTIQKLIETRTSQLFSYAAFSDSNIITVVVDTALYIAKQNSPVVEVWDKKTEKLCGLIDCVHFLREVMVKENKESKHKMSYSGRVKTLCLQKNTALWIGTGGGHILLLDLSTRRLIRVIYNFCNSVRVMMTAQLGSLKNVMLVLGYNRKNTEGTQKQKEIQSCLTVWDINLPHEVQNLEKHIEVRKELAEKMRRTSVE
row,Compound,IC50 [nM]
1,"N#CC1(c2ccc3cnn(-c4cc(N5CCN6CCOC[C@H]6C5)ncn4)c3c2)CC2(CC2)C1 [Example 46, (R)-5-(1-(6-(hexahydropyrazino[2,1-c][1,4]oxazin-8(1H)-yl)pyrimidin-4-yl)-1H-indazol-6-yl)spiro[2.3]hexane-5-carbonitrile]",7
2,"Cc1nc(N2CCN3CCOC[C@@H]3C2)cc(-n2ncc3ccc(C4(C#N)CC5(CC5)C4)cc32)n1 [Example 47, (S)-5-(1-(6-(hexahydropyrazino[2,1-c][1,4]oxazin-8(1H)-yl)-2-methylpyrimidin-4-yl)-1H-indazol-6-yl)spiro[2.3]hexane-5-carbonitrile]",3.2
3,"Cc1nc(N2CCN3CCOC[C@@H]3C2)cc(-n2ncc3cnc(C4(C#N)CC5(CC5)C4)cc32)n1 [Example 48, (S)-5-(1-(6-(hexahydropyrazino[2,1-c][1,4]oxazin-8(1H)-yl)-2-methylpyrimidin-4-yl)-1H-pyrazolo[4,3-c]pyridin-6-yl)spiro[2.3]hexane-5-carbonitrile]",20.2
4,"N#CC1(c2cc3c(cn2)cnn3-c2cc(N3CCN4CCOC[C@@H]4C3)ncn2)CC2(CC2)C1 [Example 49, (S)-5-(1-(6-(hexahydropyrazino[2,1-c][1,4]oxazin-8(1H)-yl)pyrimidin-4-yl)-1H-pyrazolo[4,3-c]pyridin-6-yl)spiro[2.3]hexane-5-carbonitrile]",8.8
